From ChEMBL document CHEMBL5505970 (J Med Chem, 2024)
Activity calls are given as the source filed them. The rule behind the calls is not given here.

Assays:
[1] = Toxicity in NOD-SCID mouse xenografted with human Granta-519 cells assessed as early stage erythroblasts at 30 mg/kg, po qd for 3 days and measured at 2 days after treatment discontinuation by flow cytometry; format: organism-based; conditions: in vivo, 72 h, time 3 day
[2] = Clearance in Sprague-Dawley rat at 1 mg/kg, iv formulated as a solution in 10% PG:18% PEG400 in water or 5% NMP:95% (10% VitE TPGS in water) measured for 24 hrs by reverse phase liquid chromatography coupled to mass spectrometry; format: ADME, organism-based; conditions: in vivo
[3] = biological target: Serine-protein kinase ATM (Homo sapiens, UniProt Q13315); assay: Inhibition of ATM in human Jurkat cell lysates at 0.3 uM in presence of biotinylated ADP by KiNativ profiling based mass spectrometry; format: subcellular
[4] = Oral bioavailability in Beagle dog at 5 mg/kg formulated as suspension in 0.5% methocel and 0.02% SLS in 50 mM citrate buffer measured for 24 hrs by reverse phase liquid chromatography coupled to mass spectrometry; format: ADME, organism-based, Canis lupus familiaris; conditions: in vivo
[5] = Toxicity in NOD-SCID mouse xenografted with human Granta-519 cells assessed as reduction in late stage erythroblasts in bone marrow at 10 mg/kg, po qd for 1 day co-administered with PARP inhibitor, niraparib by flow cytometry; format: organism-based; conditions: in vivo, 24 h
[6] = Oral bioavailability in CD-1 mouse at 20 mg/kg formulated as suspension in 0.5% methocel and 0.02% SLS in 50 mM citrate buffer measured for 24 hrs by reverse phase liquid chromatography coupled to mass spectrometry; format: ADME, organism-based; conditions: in vivo
Granta-519 [7] = assay: Antitumor activity against human Granta-519 cells xenografted in NOD-SCID mouse assessed as reduction in tumor volume at 5 mg/kg, po qd for 3 days co-administered with PARP inhibitor, niraparib; format: functional, organism-based; conditions: time 3.0 day
[8] = Toxicity in NOD-SCID mouse xenografted with human Granta-519 cells assessed as red blood cells count at 5 mg/kg, po qd for 3 days and 4 days off intermittent dosing for 3 cycles co-administered with PARP inhibitor, niraparib from day 3 to day 6 in each cycle and measured on day 21; format: organism-based; conditions: in vivo, 504 h, time 21 day
[9] = Toxicity in NOD-SCID mouse xenografted with human Granta-519 cells assessed as late stage erythroblasts in bone marrow at 10 mg/kg, po qd for 3 days co-administered with PARP inhibitor, niraparib and measured at 4 days after treatment cessation by flow cytometry; format: organism-based; conditions: in vivo, 72 h, time 3 day
[10] = biological target: Serine/threonine-protein kinase SMG1 (Homo sapiens) (UniProt Q96Q15); assay: Inhibition of SMG1 in human Jurkat cell lysates at 0.03 to 0.3 uM in presence of biotinylated ADP by KiNativ profiling based mass spectrometry; format: subcellular; conditions: dose 0.03-0.3 µM
[11] = Toxicity in BALB/c mouse assessed as red blood cells in bone marrow at 10 mg/kg, po qd for 3 days and measured at 4 days after treatment discontinuation; format: organism-based; conditions: in vivo, 72 h, time 3 day
[12] = Toxicity in NOD-SCID mouse xenografted with human Granta-519 cells assessed as early stage erythroblasts in bone marrow at 10 mg/kg, po qd for 3 days co-administered with PARP inhibitor, niraparib and measured at 4 days after treatment cessation by flow cytometry; format: organism-based; conditions: in vivo, 72 h, time 3 day
[13] = Toxicity in BALB/c mouse assessed as late stage erythroblasts in bone marrow at 10 mg/kg, po qd for 3 days and measured at 4 days after treatment discontinuation by flow cytometry; format: organism-based; conditions: in vivo, 72 h, time 3 day
[14] = Toxicity in NOD-SCID mouse xenografted with human Granta-519 cells assessed as early stage erythroblasts in bone marrow at 10 mg/kg, po qd for 3 days co-administered with PARP inhibitor, niraparib and measured at 2 days after treatment cessation by flow cytometry; format: organism-based; conditions: in vivo, 72 h, time 3 day
[15] = Toxicity in BALB/c mouse assessed as increase in proportion of red blood cells in bone marrow at 10 mg/kg, po qd for 3 days; format: organism-based; conditions: in vivo, 72 h, time 3 day
[16] = biological target: Serine/threonine-protein kinase ATR (Homo sapiens, UniProt Q13535); assay: Inhibition of ATR in human HeLa S3 cells assessed as decrease in CHK1 phosphorylation at Ser345 residue pretreated for 20 mins followed by gemcitabine stimulation for 3.5 to 4 hrs by AlphaScreen SurFire assay; format: cell-based
[17] = Clearance in monkey liver microsomes at 1 uM in presence of NADPH by ESI/LC-MS/MS analysis; format: ADME, Macaca mulatta, Microsome; conditions: rhesus monkey, read-out: CLH
[18] = Clearance in human liver microsomes at 1 uM in presence of NADPH by ESI/LC-MS/MS analysis; format: ADME, Microsome; conditions: read-out: CLH
[19] = Toxicity in NOD-SCID mouse xenografted with human Granta-519 cells assessed as late stage erythroblasts in bone marrow at 10 mg/kg, po qd for 3 days and measured at 2 days after treatment cessation by flow cytometry; format: organism-based; conditions: in vivo, 72 h, time 3 day
[20] = Toxicity in BALB/c mouse assessed as early stage erythroblasts in bone marrow at 10 mg/kg, po qd for 3 days and measured at 2 days after treatment discontinuation by flow cytometry; format: organism-based; conditions: in vivo, 72 h, time 3 day
[21] = Toxicity in BALB/c mouse assessed as reduction in total viable cell counts in femur at 10 mg/kg, po qd for 3 days; format: organism-based; conditions: in vivo, 72 h, time 3 day
[22] = Toxicity in BALB/c mouse assessed as decrease in proportion of reticulocytes in bone marrow at 10 mg/kg, po qd for 3 days; format: organism-based; conditions: in vivo, 72 h, time 3 day
[23] = Clearance in mouse liver microsomes at 1 uM in presence of NADPH by ESI/LC-MS/MS analysis; format: ADME, Microsome; conditions: read-out: CLH
[24] = Clearance in cynomolgus monkey at 0.5 mg/kg, iv formulated as a solution in 10% PG:18% PEG400 in water or 5% NMP:95% (10% VitE TPGS in water) measured for 24 hrs by reverse phase liquid chromatography coupled to mass spectrometry; format: ADME, organism-based, Macaca fascicularis; conditions: in vivo
[25] = biological target: DNA-dependent protein kinase catalytic subunit (Homo sapiens, UniProt P78527); assay: Inhibition of DNA-PK in human Jurkat cell lysates at 0.3 uM in presence of biotinylated ADP by KiNativ profiling based mass spectrometry; format: subcellular
[26] = biological target: Phosphatidylinositol 4-phosphate 3-kinase C2 domain-containing subunit beta (Homo sapiens) (UniProt O00750); assay: Inhibition of PIK3C2B in human Jurkat cell lysates at 0.3 uM in presence of biotinylated ADP by KiNativ profiling based mass spectrometry; format: subcellular
Granta-519 [27] = assay: Antitumor activity against human Granta-519 cells xenografted in NOD-SCID mouse assessed as decrease in tumor volume at 30 mg/kg, po qd for 3 days and measured at 4 days after drug treatment cessation; format: functional, organism-based; conditions: time 3.0 day
[28] = Clearance in Beagle dog at 0.5 mg/kg, iv formulated as a solution in 10% PG:18% PEG400 in water or 5% NMP:95% (10% VitE TPGS in water) measured for 24 hrs by reverse phase liquid chromatography coupled to mass spectrometry; format: ADME, organism-based, Canis lupus familiaris; conditions: in vivo
[29] = Oral bioavailability in Sprague-Dawley rat at 20 mg/kg formulated as suspension in 0.5% methocel and 0.02% SLS measured for 24 hrs by reverse phase liquid chromatography coupled to mass spectrometry; format: ADME, organism-based; conditions: in vivo
[30] = Toxicity in BALB/c mouse assessed as depletion of erythroid lineage by measuring increase in myeloid to erythroid ratio in bone marrow at 10 mg/kg, po qd for 3 days; format: organism-based; conditions: in vivo, 72 h, time 3 day

Chain of Serine/threonine-protein kinase ATR (Q13535 whole entry): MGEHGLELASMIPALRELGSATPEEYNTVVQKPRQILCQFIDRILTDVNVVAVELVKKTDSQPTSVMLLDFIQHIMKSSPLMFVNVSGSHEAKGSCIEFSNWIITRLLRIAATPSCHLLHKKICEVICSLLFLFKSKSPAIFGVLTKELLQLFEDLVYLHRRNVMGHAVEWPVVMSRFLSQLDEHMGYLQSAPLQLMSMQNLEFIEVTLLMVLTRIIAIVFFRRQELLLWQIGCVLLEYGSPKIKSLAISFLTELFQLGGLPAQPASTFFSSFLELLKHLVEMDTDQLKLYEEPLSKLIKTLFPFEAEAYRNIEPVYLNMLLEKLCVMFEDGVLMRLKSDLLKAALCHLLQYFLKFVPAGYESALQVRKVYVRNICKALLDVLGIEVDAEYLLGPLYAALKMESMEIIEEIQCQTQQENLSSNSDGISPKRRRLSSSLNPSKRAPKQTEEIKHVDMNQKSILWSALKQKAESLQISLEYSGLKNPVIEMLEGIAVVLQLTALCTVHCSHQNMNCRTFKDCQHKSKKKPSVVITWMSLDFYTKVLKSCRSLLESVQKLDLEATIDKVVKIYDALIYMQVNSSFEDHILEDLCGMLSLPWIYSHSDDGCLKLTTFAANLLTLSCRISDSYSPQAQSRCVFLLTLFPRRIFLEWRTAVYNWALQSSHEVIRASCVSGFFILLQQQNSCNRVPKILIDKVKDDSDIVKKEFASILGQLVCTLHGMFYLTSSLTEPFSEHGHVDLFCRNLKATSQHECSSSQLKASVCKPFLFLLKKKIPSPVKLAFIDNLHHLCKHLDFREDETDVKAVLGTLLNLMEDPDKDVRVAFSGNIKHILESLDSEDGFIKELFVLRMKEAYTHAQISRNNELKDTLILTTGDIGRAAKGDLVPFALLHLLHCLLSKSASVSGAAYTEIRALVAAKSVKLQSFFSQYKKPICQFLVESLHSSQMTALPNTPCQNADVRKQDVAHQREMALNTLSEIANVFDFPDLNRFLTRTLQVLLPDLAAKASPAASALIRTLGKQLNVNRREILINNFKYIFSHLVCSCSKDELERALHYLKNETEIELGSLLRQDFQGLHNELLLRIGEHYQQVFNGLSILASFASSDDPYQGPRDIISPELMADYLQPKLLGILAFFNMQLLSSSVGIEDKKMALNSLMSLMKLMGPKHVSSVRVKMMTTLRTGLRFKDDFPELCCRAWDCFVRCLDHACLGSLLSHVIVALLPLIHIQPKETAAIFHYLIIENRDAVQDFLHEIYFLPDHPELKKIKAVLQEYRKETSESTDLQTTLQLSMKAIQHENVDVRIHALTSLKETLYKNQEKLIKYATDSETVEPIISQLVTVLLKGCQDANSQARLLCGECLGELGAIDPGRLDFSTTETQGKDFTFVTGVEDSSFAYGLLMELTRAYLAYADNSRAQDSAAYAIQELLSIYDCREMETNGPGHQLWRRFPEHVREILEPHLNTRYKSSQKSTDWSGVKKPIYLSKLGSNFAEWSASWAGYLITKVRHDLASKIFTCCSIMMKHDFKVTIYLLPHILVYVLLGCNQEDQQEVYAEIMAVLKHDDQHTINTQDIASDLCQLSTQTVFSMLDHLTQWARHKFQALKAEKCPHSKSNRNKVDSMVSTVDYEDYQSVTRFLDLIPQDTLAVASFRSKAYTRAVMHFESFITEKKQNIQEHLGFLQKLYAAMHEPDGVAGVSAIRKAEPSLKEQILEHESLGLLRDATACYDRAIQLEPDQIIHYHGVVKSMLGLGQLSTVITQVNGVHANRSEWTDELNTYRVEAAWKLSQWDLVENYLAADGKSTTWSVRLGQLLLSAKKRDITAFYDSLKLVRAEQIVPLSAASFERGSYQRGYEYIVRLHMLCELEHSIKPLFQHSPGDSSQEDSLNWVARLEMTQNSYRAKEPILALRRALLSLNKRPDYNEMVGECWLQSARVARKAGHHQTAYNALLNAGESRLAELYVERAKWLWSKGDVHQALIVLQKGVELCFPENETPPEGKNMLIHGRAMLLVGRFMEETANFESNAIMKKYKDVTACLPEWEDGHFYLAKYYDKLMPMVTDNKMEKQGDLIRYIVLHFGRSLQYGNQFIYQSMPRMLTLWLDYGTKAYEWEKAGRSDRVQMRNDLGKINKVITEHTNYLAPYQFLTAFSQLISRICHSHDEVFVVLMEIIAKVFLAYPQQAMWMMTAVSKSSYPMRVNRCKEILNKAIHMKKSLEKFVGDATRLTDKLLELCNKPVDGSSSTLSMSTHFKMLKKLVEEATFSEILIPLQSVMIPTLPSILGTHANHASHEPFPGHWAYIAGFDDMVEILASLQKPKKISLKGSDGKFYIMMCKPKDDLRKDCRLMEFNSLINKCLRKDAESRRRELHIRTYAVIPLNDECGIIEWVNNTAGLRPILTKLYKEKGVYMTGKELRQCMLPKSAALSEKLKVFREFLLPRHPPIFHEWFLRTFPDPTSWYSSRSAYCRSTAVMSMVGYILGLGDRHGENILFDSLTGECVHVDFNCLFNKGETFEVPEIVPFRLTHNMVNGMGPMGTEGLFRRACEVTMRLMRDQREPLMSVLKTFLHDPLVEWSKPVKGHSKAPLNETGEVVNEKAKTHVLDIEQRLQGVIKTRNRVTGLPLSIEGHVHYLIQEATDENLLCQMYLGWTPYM
Chain of Phosphatidylinositol 4-phosphate 3-kinase C2 domain-containing subunit beta (Homo sapiens) (O00750 whole entry, the tested form may be a part): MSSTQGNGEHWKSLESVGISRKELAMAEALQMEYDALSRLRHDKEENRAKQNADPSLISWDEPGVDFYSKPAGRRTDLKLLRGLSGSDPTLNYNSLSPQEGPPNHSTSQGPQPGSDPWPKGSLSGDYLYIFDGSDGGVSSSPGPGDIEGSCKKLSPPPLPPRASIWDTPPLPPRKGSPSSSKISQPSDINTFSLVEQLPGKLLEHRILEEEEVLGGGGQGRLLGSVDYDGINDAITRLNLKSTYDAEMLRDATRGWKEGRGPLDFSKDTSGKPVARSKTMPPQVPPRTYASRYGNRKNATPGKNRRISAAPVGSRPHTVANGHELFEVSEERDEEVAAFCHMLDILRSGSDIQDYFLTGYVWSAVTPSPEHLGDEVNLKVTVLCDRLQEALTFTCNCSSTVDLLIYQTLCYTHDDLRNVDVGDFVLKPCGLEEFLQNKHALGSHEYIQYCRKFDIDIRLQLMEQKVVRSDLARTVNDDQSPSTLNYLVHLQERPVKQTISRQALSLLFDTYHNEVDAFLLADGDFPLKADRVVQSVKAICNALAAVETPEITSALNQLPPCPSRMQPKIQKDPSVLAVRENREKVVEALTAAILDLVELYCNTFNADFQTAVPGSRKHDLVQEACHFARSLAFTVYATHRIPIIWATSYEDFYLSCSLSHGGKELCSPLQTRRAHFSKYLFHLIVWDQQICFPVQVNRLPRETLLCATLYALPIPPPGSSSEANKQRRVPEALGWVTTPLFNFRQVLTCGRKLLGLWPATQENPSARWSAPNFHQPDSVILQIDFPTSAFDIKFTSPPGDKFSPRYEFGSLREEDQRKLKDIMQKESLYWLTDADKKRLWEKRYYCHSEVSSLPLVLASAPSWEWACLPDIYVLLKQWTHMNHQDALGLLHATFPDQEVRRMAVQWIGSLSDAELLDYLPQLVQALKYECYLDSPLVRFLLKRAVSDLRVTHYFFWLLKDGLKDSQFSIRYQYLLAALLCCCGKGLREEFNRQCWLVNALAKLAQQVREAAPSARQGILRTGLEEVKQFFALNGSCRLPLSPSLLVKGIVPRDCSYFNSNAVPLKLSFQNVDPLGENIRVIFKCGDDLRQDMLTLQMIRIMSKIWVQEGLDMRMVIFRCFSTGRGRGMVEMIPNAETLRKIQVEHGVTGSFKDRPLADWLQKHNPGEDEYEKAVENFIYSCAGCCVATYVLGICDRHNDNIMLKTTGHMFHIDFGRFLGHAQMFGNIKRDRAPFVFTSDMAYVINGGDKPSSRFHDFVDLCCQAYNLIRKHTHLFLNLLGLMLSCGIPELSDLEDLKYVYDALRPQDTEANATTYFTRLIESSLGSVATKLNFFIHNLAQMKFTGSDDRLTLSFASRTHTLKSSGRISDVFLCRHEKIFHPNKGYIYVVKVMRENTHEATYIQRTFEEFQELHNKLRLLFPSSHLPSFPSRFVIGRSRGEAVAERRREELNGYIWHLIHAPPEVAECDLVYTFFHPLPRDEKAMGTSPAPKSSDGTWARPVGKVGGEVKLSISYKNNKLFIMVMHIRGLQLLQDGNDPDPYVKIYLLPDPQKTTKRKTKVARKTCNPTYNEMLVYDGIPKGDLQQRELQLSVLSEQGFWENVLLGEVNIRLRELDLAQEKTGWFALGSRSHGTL

With `C[C@@H]1COCCN1c1cc([C@]2(O)C[C@H]3CC[C@@H](C2)O3)c2cnn(-c3cc[nH]n3)c2n1` [CAMONSERTIB] the Activity [1] was “Non-Toxic”, the clearance [2] was 1.32 L/h/kg and the inhibition [3] was “Active”. For the same compound, the bioavailability [4] was 113%, the Activity [5] was “Toxic” and the bioavailability [6] was 72%. For the same compound, the Activity (Granta-519 [7]) was “Active”, the Activity [8] was “Non-Toxic” and the Activity [9] was “Non-Toxic”. For the same compound, the inhibition [10] was “Active”, the Activity [11] was “Non-Toxic” and the Activity [12] was “Non-Toxic”. The Activity [13] was “Non-Toxic”, the Activity [14] was “Non-Toxic” and the Activity [15] was “Toxic”. The IC50 [16] was 0.9 nM, the microsomal CLint at 1 µM [17] was 26 µL/min/mg and the microsomal CLint at 1 µM [18] was less than 11.6 µL/min/mg. The Activity [19] was “Non-Toxic”, the Activity [20] was “Non-Toxic” and the Activity [21] was “Toxic”. For the same compound, the Activity [22] was “Toxic”, the microsomal CLint at 1 µM [23] was 25 µL/min/mg and the clearance [24] was 0.84 L/h/kg. For the same compound, the inhibition [25] was “Active”, the inhibition [26] was “Active” and the Activity (Granta-519 [27]) was “Active”. For the same compound, the clearance [28] was 0.606 L/h/kg, the bioavailability [29] was 45% and the Activity [30] was “Toxic”.
